Test [1] has as its system atopic dermatitis animal model. In words: Ear thickness measurement in atopic dermatitis animal model. The format is in vivo, NC/Nga mouse. As to conditions: FIG. 2; for ear thickness compared with induced control group (group 2): 7th and 14th day after administration, tetrapeptide 0.622, ACP-tetrapeptide 4.987, prednisolone 50 μg/ear once a day, p<0.001 or p<0.01. As to the method: (§1) After the ear auricle of the NC/Nga mouse was shaved with a razor, the epilating agent was applied in an appropriate amount for the complete depilation. After the epilating agent was wiped off, Then, 100 mg of the AD-inducing reagent shown in Table 2 as below was uniformly applied to the ear auricle using a micropipette tip, thereby inducing atopic dermatitis for the first time. After shaving with a razor for necessary, 150 μL of a 4% SDS aqueous solution was uniformly applied to the ear auricle using a micropipette, dried with a cold air using a dryer, and air-dried for about 2 to 3 hours. Then, 100 mg of the same AD-inducing reagent was uniformly applied to the ear auricle using a micropipette tip, thereby inducing atopic dermatitis after 2 times. All treatments were carried out twice a week to be 6 times for a total of 3 weeks, thereby producing atopic dermatitis animal model. The mice of groups 2 to 5 were obtained by the atopic dermatitis animal model prepared in Experimental Method 3 as described above. The experimental substance and the control substance were uniformly applied to the ear auricle using a micropipette tip. From the day of the experimental substance administration (Day 0) to the day of the autopsy (Day 14), they were administered once a day for 2 weeks. Ear thickness was measured for each individual by calipers, and the ear area was photographed. Ear thickness measurement and photographing were performed once a week on the day of starting the experimental substance administration and thereafter.

The test system of test [2] is atopic dermatitis animal model. In words: Visual pathological evaluation (skin clinical index) in atopic dermatitis animal model. Format: in vivo, NC/Nga mouse. As to conditions: 14th day after administration; p<0.05; FIG. 6. The procedure: as §1, with “[…] For each individual, 0 (none), 1 (mild), 2 (moderate) and 3 (severe)” for “From the day of the experimental substance administration (Day 0) to the day of the autopsy (Day 14), they”, “recorded” for “administered once a day”, “erythema/hemorrhage, edema, excoriation/erosion” for “2 weeks. Ear thickness was measured for each individual by calipers,”, “scaling/dryness. […]” for “the ear area was photographed. Ear thickness measurement and photographing were performed once a week on the day of starting the experimental substance administration and thereafter.”

Test [3] relates to atopic dermatitis animal model. Description: Histopathological examination of ear epidermis and dermis (H&E scoring). As to conditions: infiltration by inflammatory cells, p<0.05, FIGS. 8 and 9; for epidermis score level compared with group 2: hypertrophy, hyperkeratosis. Format: in vivo, NC/Nga mouse. The procedure: After the ear auricle of the NC/Nga mouse was shaved with a razor, the epilating agent was applied in an appropriate amount for the complete depilation. After the epilating agent was wiped off, Then, 100 mg of the AD-inducing reagent shown in Table 2 as below was uniformly applied to the ear auricle using a micropipette tip, thereby inducing atopic dermatitis for the first time. After shaving with a razor for necessary, 150 μL of a 4% SDS aqueous solution was uniformly applied to the ear auricle using a micropipette, dried with a cold air using a dryer, and air-dried for about 2 to 3 hours. Then, 100 mg of the same AD-inducing reagent was uniformly applied to the ear auricle using a micropipette tip, thereby inducing atopic dermatitis after 2 times. All treatments were carried out twice a week to be 6 times for a total of 3 weeks, thereby producing atopic dermatitis animal model. The mice of groups 2 to 5 were obtained by the atopic dermatitis animal model prepared in Experimental Method 3 as described above. The experimental substance and the control substance were uniformly applied to the ear auricle using a micropipette tip. From the day of the experimental substance administration (Day 0) to the day of the autopsy (Day 14), they were administered once a day for 2 weeks. On the day of the autopsy, ears were removed for the histopathological examination and fixed in 10% neutral buffered formalin solution. The fixed tissues were subject to the general tissue treatment such as reprofiling, dehydration, paraffin embedding, and dissection, thereby preparing specimens for histopathological examination. Then, hematoxylin and eosin (H & E) and TUNEL assays were performed on histopathologic specimens, and the light microscopy (Olympus BX53, Japan) was used to observe histopathologic changes. In the histopathologic evaluation using hematoxylin and eosin staining slides, in order to compare the degree of the lesion with the induced control group, the most severe lesion was selected, and then the hypertrophy, hyperkeratosis and infiltration by inflammatory cells were evaluated in the epidermis. In the dermis, the infiltration by inflammatory cells was evaluated. Scoring criteria are the same as 0 (no symptoms), 1 (mild), 2 (moderate), and 3 (severe) (Taniguchi Y et al 2003).

The next test relates to IgE. In words: ELISA analysis of serum IgE in atopic dermatitis animal model. As to conditions: day of autopsy (Day 14).
A further test deals with histamine. Description: ELISA analysis of serum histamine in atopic dermatitis animal model. Format: in vivo, NC/Nga mouse. As to conditions: day of autopsy (Day 14). The procedure:
(§2) After the ear auricle of the NC/Nga mouse was shaved with a razor, the epilating agent was applied in an appropriate amount for the complete depilation. After the epilating agent was wiped off, Then, 100 mg of the AD-inducing reagent shown in Table 2 as below was uniformly applied to the ear auricle using a micropipette tip, thereby inducing atopic dermatitis for the first time.
(§3) After shaving with a razor for necessary, 150 μL of a 4% SDS aqueous solution was uniformly applied to the ear auricle using a micropipette, dried with a cold air using a dryer, and air-dried for about 2 to 3 hours. Then, 100 mg of the same AD-inducing reagent was uniformly applied to the ear auricle using a micropipette tip, thereby inducing atopic dermatitis after 2 times. All treatments were carried out twice a week to be 6 times for a total of 3 weeks, thereby producing atopic dermatitis animal model.
(§4) The mice of groups 2 to 5 were obtained by the atopic dermatitis animal model prepared in Experimental Method 3 as described above.
(§5) The experimental substance and the control substance were uniformly applied to the ear auricle using a micropipette tip. From the day of the experimental substance administration (Day 0) to the day of the autopsy (Day 14), they were administered once a day for 2 weeks.
On the day of the autopsy, blood samples were collected from the abdominal vein using a syringe. The serum isolated from the blood was analyzed for IgE and histamine using an ELISA kit.
(ELISA stands for enzyme-linked immunosorbent assay.)

Test [4] has as its system atopic mouse skin tissues. In words: Immunohistochemical staining of atopic mouse skin tissue (angiogenic marker, inflammatory cells, keratin). The format is in vivo, NC/Nga mouse. As to the method:
as §2, §3, §4, §5
Atopy mouse skin tissues were immersed in Xylene three times for 5 minutes, 100% ethanol for 2 minutes, 95% ethanol for 2 minutes, 90% ethanol for 2 minutes, 70% ethanol for 2 minutes and D.W. for 2 minutes to remove paraffin and to perform hydration. After washing with PBS, they were treated with 0.2% Triton X-100 to increase cell permeability. After re-washing with PBS, they were reacted with blocking solution, 3% bovine serum albumin, for 1 hour. For inflammatory cells and keratin staining, they were reacted with F4/80 (sc-377009, Santa Cruz) and cytokeratin (NB600-579, NOVUSBIO) antibodies, respectively, at room temperature for 2 hours. After washing with PBS, they were treated with Texas Red (ab6787, Abcam) secondary antibody and reacted at room temperature for 60 minutes. The mounting solution was dropped on the tissue of the slide. Then, the tissue was covered with a cover slide, and the sample was observed under a fluorescence microscope. For analysis of the degree of angiogenesis, the atopic skin tissue was reacted with FITC-conjugated isolectin B4 (L2895, Sigma), a blood vessel marker at room temperature for 2 hours. The mounting solution was dropped on the tissue of the slide. Then, the tissue was covered with a cover slide, and the sample was observed under a fluorescence microscope
The mouse skin tissues stained with the respective markers were photographed using a fluorescence microscope (DMil, Leica, Germany), and fluorescence intensities were quantitatively analyzed using an ImageJ program (NIH, Bethesda, Md., USA).

Test [5] has as its system VE-cadherin (adherens junction). In words: Recovery of VE-cadherin broken by VEGF in HUVEC (confocal immunofluorescence). The format is cell-based, Human. As to conditions: peptide pretreatment 30 minutes, VEGF 20 ng/ml 1 hour, FIGS. 16 and 17. As to the method:
(§6) HUVECs were starved with M199 media supplemented with 1% FBS for 4 hours, inoculated on a 24-well plate containing glass at the number of 1×10^5 cells, and cultured for 24 hours to attach the cells to the glass. HUVECs were pretreated with the acetylated tetrapeptide and the non-acetylated tetrapeptide (—Ac) for 30 minutes and treated with VEGF at a concentration of 20 ng/ml for 1 hour. Thereafter, the cells were washed three times with PBS, fixed in 3.7% formaldehyde for 20 minutes, and treated with PBS containing 0.2% Triton X-100 to increase […] permeability. After blocking with 3% BSA for 1 hour, they were reacted with VE-cadherin (adherens junction) and ZO-1 (tight junction) antibodies at room temperature for 2 hours and washed three times with PBS. They were treated with Cy3 secondary antibodies, reacted at room temperature for 1 hour, washed twice with PBS, and stained with DAPI for 10 minutes. The huvec-attached glass was removed and mounted on a sliding glass.

Another test has as its system ZO-1 (tight junction). In words: Recovery of ZO-1 broken by VEGF in HUVEC (confocal immunofluorescence). The format is cell-based, Human. As to conditions: peptide pretreatment 30 minutes, VEGF 20 ng/ml 1 hour, FIGS. 18 and 19. As to the method:
as §6

The source of these data is patent US11208433B2, “Peptide for inhibiting skin inflammation and composition for preventing or treating skin inflammation containing the same” (AVIXGEN Inc., priority 2017, dated 2021).

For the compound `C[C@]12C=CC(=O)C=C1CC[C@@H]1[C@@H]2[C@@H](O)C[C@@]2(C)[C@H]1CC[C@]2(O)C(=O)CO` [Prednisolone, prednisolone, reference compound], the “ear thickness compared with induced control group (group 2)” value in test [1] was “significantly thinner”. Besides, the “scaling/dryness level compared with group 2” value in test [2] is “significantly lower”. In test [3], the “epidermis score level compared with group 2” value is on record as “significantly lower” and the “dermis score level compared with group 2” value is recorded as “significantly lower”. Besides, the “IgE level compared with group 2 (induced control)” value in the test with IgE (p<0.001 or p<0.01, FIG. 7) is reported as “significantly lower”.
Turning to RLYE [Tetrapeptide], the “ear thickness compared with induced control group (group 2)” value in test [1] is recorded as “significantly thinner”. Moreover, in test [1] (14th day after administration, p<0.001), the “ear thickness compared with normal control group (group 1)” value is recorded as “significantly thicker”. Besides, in the test on histamine (FIG. 7), the “histamine level compared with prednisolone treated group” value is listed as “lower than that of the prednisolone treated group”. Further, the “histamine level compared with group 2 (induced control)” value in the test with histamine (p<0.001 or p<0.01, FIG. 7) was “significantly lower”. Also, in test [3], the “epidermis score level compared with group 2” value is listed as “significantly lower” and the “dermis score level compared with group 2” value is reported as “significantly lower”. Moreover, in test [4] (atopic mouse skin tissue, also similar to prednisolone treated group, FIG. 10), the “angiogenesis (Isolectin B4 staining)” value was “lower than that of the inducted control group”. The “inflammatory cell inflow (F4/80 staining)” value in test [4] (atopic mouse skin tissue, also similar to prednisolone treated group, FIG. 11) was “lower than that of the inducted control group”. Besides, the “keratinization and fibrosis (cytokeratin staining)” value in test [4] (atopic mouse skin tissue, also similar to prednisolone treated group, FIG. 12) is “lower than that of the inducted control group”. The “anti-atopic effect compared with prednisolone” value in test [4] (treatment amount having a molar ratio lower than 1000 times that of prednisolone, FIG. 13) is on record as “superiority to prednisolone”. For the same compound, in test [5], the “damage level of VE-cad caused by VEGF” value is recorded as “recovered to a level similar to that of the control group without VEGF treatment”. Further, the “damage level of ZO-1 caused by VEGF” value with ZO-1 (tight junction) is recorded as “recovered to a level similar to that of the control group without VEGF treatment”. Besides, the “IgE level compared with prednisolone treated group” value with IgE (FIG. 7) is “lower than that of the prednisolone treated group”. In the test on IgE (p<0.001 or p<0.01, FIG. 7), the “IgE level compared with group 2 (induced control)” value is reported as “significantly lower” and the “IgE level compared with normal control group” value is reported as “significantly higher”.
As for “Tetrapeptide (—Ac): non-acetylated tetrapeptides (RLYE)”, the “damage level of VE-cad caused by VEGF” value in test [5] is “recovered to a level similar to that of the control group without VEGF treatment”. Moreover, in the test with ZO-1 (tight junction), the “damage level of ZO-1 caused by VEGF” value is “recovered to a level similar to that of the control group without VEGF treatment”.
